Test results as given in patent US6821774B1, “Compositions and methods for increasing cholesterol efflux and raising HDL using ATP binding cassette transporter ABC1” (CV Therapeutics, Inc., priority 1999, dated 2004).

What was measured:
Assay type in all cases: cell-based, mouse
ABC1 mRNA = ABC1 mRNA expression by RT-PCR in RAW 264.7 cells; conditions: 10 μM, 24 hours, serum-free DMEM/BSA
Description: RT-PCR: Quantitative PCR was carried out using the GeneAmp 5700 Sequence Detection System (Perkin-Elmer Applied Biosystems, Foster City, Calif.). Briefly, 500 ng of DNase-treated mRNA was reverse transcribed using random hexamer primers at 2.5 μM. Approximately 5% of this reaction was amplified by PCR using the SYBR green core kit (PE Applied Biosystems, Foster City, Calif.; Cat. #4304886) and human ABC1 primers LF: 5′-[…] (SEQ ID NO: 11) and LR: 5′-[…] (SEQ ID NO: 12) to yield an 82 bp fragment corresponding to nucleotides 7018-7099 of human ABC1. PCR cycle conditions were as follows: 10 minutes 95° C.; followed by 40 cycles of 95° C., 15 seconds; and 60° C., 60 secounds. The mRNA in each sample was quantitated by detecting the increase in fluorescence caused by SYBR green binding to the double-stranded amplification product generated during each PCR cycle. All samples were run in triplicate and normalized against β-actin mRNA, amplified in parallel reactions with primers actinF: 5′-[…] (SEQ ID NO: 54) and actinB: 5′-[…] […]
Mouse RAW 264.7 cells were grown to subconfluence in DMEM/10% FBS and then treated for 24 hours in serum-free DMEM/BSA with either 9-cis retinoic acid (10 μM), 20-hydroxycholesterol (10 μM), or both ligands together (20 μM total). […] RNA was extracted, treated with DNase, and ABC1 mRNA measured by RT-PCR using PE Biosystems SYBR Green Technology as described in Example 9.

RAW 264.7 cells = assay: Apo A-I-mediated cholesterol efflux assay in cholesterol-loaded RAW 264.7 macrophage cells
Description: To determine whether ligands for nuclear receptors affect the process of apolipoprotein-mediated cholesterol efflux, various ligands were tested using the apo A-I-mediated cholesterol efflux assay described in Example 12. The nuclear receptor superfamily includes several members, such as the liver receptor LXR, the retinoid receptor RXR, and the peroxisome proliferator-activated receptor PPAR, which have been implicated in lipid metabolism (Russell. D. W., Cell, 97:539-542 (1999); Spiegelman, B. W., Cell, 93:153-155 (1998); Janowski et al., Nature, 383:728-731 (1996)). […] Using the above-described assay, 9 cis-retinoic acid (RXR ligand), oxysterol (LXR ligand), and fenfibrate (PPAR ligand) was tested to determine the effect on cholesterol efflux.
To determine whether eicosanoids affect the process of apolipoprotein-mediated cholesterol efflux, PGE1 and PG12 were tested using the apo A-I-mediated cholesterol efflux assay described in Example 12.

ABC1 promoter = assay: pAPR1 luciferase reporter assay (ABC1 promoter) in RAW 264.7 cells; conditions: 24 hours
Source text: Construction of Reporter Plasmids: Plasmid pGL3-Basic (Promega, Madison, Wis.; Cat. #E1751) was used as a control plasmid containing the promoter less luciferase gene. The reporter construct containing the ABC1 promoter and luciferase gene was made by cloning a genomic fragment from the 5′ flanking region of the ABC1 gene (hAPR1 5′ promoter, corresponding to nucleotides 1080-1643 of SEQ ID NO: 3) into the SacI site of the GL3-Basic plasmid to generate plasmid GL-6a. Next, plasmid GL-6a was digested with SpeI and Acc65I. […]
Luciferase Assay: Following transfection, the cells in each well were lysed in 70 μl of 1× cell lysis reagent (Promega, Madison, Wis., Cat. #E3971), subjected to one freeze-thaw cycle, and the lysate cleared by centrifugation for 5 minutes at 12,000 g. […] The luciferase activity of each lysate was measured as light units using a luminometer. Additionally, the β-galactosidase activity of each lysate was measured using the chemiluminescent assay reagents supplied in the Galacto-light kit according to the manufacturer's instructions (Tropix Inc., Bedford, Mass.: Cat. #BL100G). The normalized luciferase activity for each lysate was determined by dividing the luciferase activity value by the determined β-galactosidase value and reported as relative light units. […]

[1] = system: 5′ flanking region of ABC1; assay: Luciferase reporter assay with ABC1 5′ flanking region constructs in RAW 264.7 cells; conditions: wild-type sequence nucleotides 1080-1643; single ligand or both together
Description: (§1) Luciferase Assay: Following transfection, the cells in each well were lysed in 70 μl of 1× cell lysis reagent (Promega, Madison, Wis., Cat. #E3971), subjected to one freeze-thaw cycle, and the lysate cleared by centrifugation for 5 minutes at 12,000 g. After centrifugation, 100 μl of luciferase assay reagent (Promega, Madison, Wis.; Cat. #E1501) was added to 10 μl of lysate. The luciferase activity of each lysate was measured as light units using a luminometer. Additionally, the β-galactosidase activity of each lysate was measured using the chemiluminescent assay reagents supplied in the Galacto-light kit according to the manufacturer's instructions (Tropix Inc., Bedford, Mass.: Cat. #BL100G). The normalized luciferase activity for each lysate was determined by dividing the luciferase activity value by the determined β-galactosidase value and reported as relative light units.
Construction of Reporter Constructs: Reporter construct pAPR1 and control reporter construct pGL3-Basic were obtained as described in Example 15. […]
Transfection of Reporter Constructs: The RAW 264.7 cells were maintained in culture and transfected with either pGL3-Basic (1 μg), pAPR1 (1 μg), or one of the other reporter constructs according to the method described in Example 15. […] The luciferase activity was measured and reported as relative light units as described in Example 15.

[2] = system: mutated sterol response element of ABC1 5′ flanking region; assay: Luciferase reporter assay with mutated sterol response element construct (nucleotides 1080-1643) in RAW 264.7 cells; conditions: mutated sequence; oxysterol 10 μM
Description: as §1
Transfection of Reporter Constructs: The RAW 264.7 cells were maintained in culture and transfected with either pGL3-Basic (1 μg), pAPR1 (1 μg), or one of the other reporter constructs according to the method described in Example 15. […] The luciferase activity was measured and reported as relative light units as described in Example 15. […]

Compound: CC1=C(/C=C/C(C)=C\C=C\C(C)=C\C(=O)O)C(C)(C)CCC1 [9-cis retinoic acid]
- change in ABC1 mRNA expression (ABC1 mRNA): increase in ABC1 mRNA expression
- increase in apoAI-induced cholesterol efflux (RAW 264.7 cells; 30 ng/ml, cholesterol-loaded mouse macrophage cells): ~3 fold
- dose dependence of cholesterol efflux from macrophage cells (RAW 264.7 cells; 0.3, 3.0 or 30 ng/ml): dose-dependent manner
- cholesterol efflux (RAW 264.7 cells; apo A-I and 9 cis-retinoic acid 30 ng/ml): 16%
- cholesterol efflux counts (RAW 264.7 cells; apo A-I plus 0.3 ng/ml 9-cis-RA): 1522 c.p.m.
- cholesterol efflux counts (RAW 264.7 cells; apo A-I plus 3.0 ng/ml 9-cis-RA): 3568 c.p.m.
- cholesterol efflux counts (RAW 264.7 cells; apo A-I plus 30 ng/ml 9-cis-RA): 8597 c.p.m.
- increase in luciferase activity compared with EtOH control (ABC1 promoter; 9-cis RA 10 μM): 16 fold
- transcriptional response (luciferase activity) [1]: produced a transcritional response

Compound: CCCCC[C@H](O)/C=C/[C@@H]1[C@H]2C/C(=C/CCCC(=O)O)O[C@H]2C[C@H]1O [PG12, prostacyclin]
- increase in apoAI-induced cholesterol efflux (RAW 264.7 cells; 25 nm, cholesterol-loaded mouse macrophage cells): ~2 fold
- cholesterol efflux (RAW 264.7 cells; apo A-I and PG12 25 nm): 10%

Compound: CC(C)CC[C@@H](O)[C@@H](C)[C@H]1CC[C@H]2[C@@H]3CC=C4C[C@@H](O)CC[C@]4(C)[C@H]3CC[C@]12C [22(R)-hydroxycholesterol]
- transcriptional response (luciferase activity) [2]: did not produce a transcriptional response
- increase in apoAI-induced cholesterol efflux (RAW 264.7 cells; 5 μg/ml, cholesterol-loaded mouse macrophage cells): ~3 fold
- effect on cholesterol efflux (data not shown) (RAW 264.7 cells; similar assay, RAW 264.7 cells cholesterol-loaded for 48 hours): increase cholesterol efflux

Compound: CCCCC[C@H](O)/C=C/[C@H]1[C@H](O)CC(=O)[C@@H]1CCCCCCC(=O)O [PGE1, prostaglandin E1]
- increase in apoAI-induced cholesterol efflux (RAW 264.7 cells; 25 nM, cholesterol-loaded mouse macrophage cells): ~3 fold
- cholesterol efflux (RAW 264.7 cells; apo A-I and PGE1 25 nM): 15%

Compound: CC(C)OC(=O)C(C)(C)Oc1ccc(C(=O)c2ccc(Cl)cc2)cc1 [fenfibrate]
- increase in cholesterol efflux (RAW 264.7 cells; 3 μg/ml, cholesterol-loaded mouse macrophage cells): ~2 fold
- cholesterol efflux (RAW 264.7 cells; apo A-I and fenfibrate 3 μg/ml): 10%

Compound: CC(C)CCC[C@](C)(O)[C@H]1CC[C@H]2[C@@H]3CC=C4C[C@@H](O)CC[C@]4(C)[C@H]3CC[C@@]21C [20(S)-hydroxycholesterol]
- change in ABC1 mRNA expression (ABC1 mRNA): increase in ABC1 mRNA expression
- transcriptional response (luciferase activity) [2]: did not produce a transcriptional response
- increase in luciferase reporter activity compared with EtOH control (ABC1 promoter; 20(S) OH-chol 10 μM): 19 fold
- transcriptional response (luciferase activity) [1]: produced a transcritional response
